Where “and” joins values, the source holds several entries; their conditions need not be identical. Identical values can stand only once. Entries after “also recorded” stand apart in the source; their conditions may differ. Non-standard residues stand in square brackets, D forms with d. Residues, ends and D or L forms follow the SMILES beside them. pS = N[C@@H](COP(=O)(O)O)C(=O)O
Columns and labels:
MRL/lpr mice = test: Survival analysis in MRL/lpr lupus mice; type: in vivo, mouse; settings: female MRL/lpr mice, intravenous, 20 mice per group; NaCl control 25 weeks
Experimental: It has been determined that this mouse strain carries a mutation in the fas gene. Also, the MRL/lpr is a useful model to study behavioural and cognitive deficits found in autoimmune diseases and the efficacy of immunosuppressive agents [Monneaux et al., 2003, Eur. J. Immunol. 33, 287-296].
Five-week-old female MRL/lpr mice received P140 or peptide P140(MO) intravenously as described (Monneaux et al., 2003, Eur. J. Immunol. 33, 287-296). All experimental protocols were carried out with the approval of the local Institutional Animal Care and Use Committee (CREMEAS). As control, mice were injected with NaCl.
Twenty mice were used for each peptide or NaCl.
Statistical tests were performed using GraphPad Prism version 5.0. The two-way ANOVA test was used to analyze statistical significance of proteinuria differences between control and peptide-treated groups of mice. Survival of control and P140 analogue-treated female MRL/lpr mice was analyzed by the Kaplan-Meier method, and the significance of differences was determined by the log-rank test. For the other variables, statistical significance was assessed using the Student's t-test. p values less than 0.05 were considered significant.

Raji cells = test: Cellular uptake of fluorescent P140 in Raji cells (flow cytometry); type: cell-based, human; settings: fluorescent peptide in 10% trehalose compared with 5.4% mannitol
Description: FIG. 8. Cellular uptake of fluorescent P140 peptide in 5.4% mannitol or 10% trehalose in MRL/lpr B cells and Raji cells as visualized by flow cytometry. B cells were from 12-14 week-old MRL/lpr mice (primary cells); Raji cells are an established cell line derived in 1963 from B-lymphocyte of a patient with Burkitt's lymphoma.
For P140 peptide activity, HSC70 binding and endocytosis appear to be important. It is believed that endocytosis must occur through the clathrin route. This implies that peptide+excipient should have a size in the range of 30 to 500 nm in diameter. For example P140+mannitol are in the 100 nm region whereas P140+trehalose are below 10 nm and therefore not effective binding to HSC70. […] B cells were from 12-14 week-old MRL/lpr mice (primary cells); Raji cells are an established cell line derived in 1963 from B-lymphocyte of a patient with Burkitt's lymphoma. […] The confocal images show the late endosomal compartment where P140 localizes before homing into lysosomes; DAPI identifies DNA.

Balb/c mice = test: 15-day ovalbumin-induced airway hypereosinophilia model, BAL cell counts; type: in vivo, mouse; settings: for B cells / Eosinophils / Macrophages / Neutrophils / T cells / Total cells: per mouse
Experimental: The anti-inflammatory effect of the P140 phosphopeptide was evaluated when administered locally (intranasally) or systemically (intravenously) in a 15-day model of hypereosinophilic airway inflammation in mice.
The P140 phosphopeptide was solubilized in sterile water (Braun) and 10× concentrate sterile saline was added to adjust osmolarity to 300 mosm. Osmolarity was controlled with a micro osmometer (Löser, type 15) and validated (302 mosm).
The P140 phosphopeptide was used in vivo at the dose of 4 mg/kg by intranasal (i.n.) and intravenous (i.v.) routes. Control animals received equivalent volumes (1 ml/kg for i.n. and 2 ml/kg for i.v.) of saline (Table 6).
Nine-week-old male Balb/c mice were sensitized by intraperitoneal (i.p.) injections of a mixture containing 50 μg OVA (Sigma-Aldrich) and 2 mg alum (Sigma-Aldrich) in 0.1 ml saline. Mice were challenged by i.n. administration of 25 μl of OVA on day 5, then 25 μl of OVA and/or saline on day 12, 13 and 14. Mice were treated by i.v. injection (2 ml/kg) or i.n. administration (1 ml/kg) of P140 or solvent on day 9 (See FIG. 9).
BAL was performed twenty-four hours after […] challenge as described (Daubeuf, F. and Frossard, N. 2012. Performing Bronchoalveolar Lavage in the Mouse. Curr Protoc Mouse Biol 2:167-175). Mice were anaesthetized IP (Ketamine 150 mg/kg—Xylasine 10 mg/kg). Blood was collected from the heart, centrifuged at 10,000 g for 2 min and serum stored at −20° C. After semi-excision of the trachea, a plastic cannula was inserted, and airspace washed with 0.5 ml of 0.9% NaCl injected with a 1 ml syringe. This procedure was performed 10 times. The initial concentrated supernatant of the 2 first lavages (volume=2×0.5 ml administered, ˜0.5 ml recovered) was collected for cytokine measurements. The remaining BAL fluid was centrifuged (300 g for 5 min, 4° C.), and cell pellets pooled. The cell pellet was suspended in 500 μl of 0.9% NaCl and used for total cell counts evaluated on a Muse® Cell Analyser. Differential cell counts were assessed by flow cytometry (LSRII® cytometer, BD Bioscience). BAL cells were added with FCblock (0.5 μl, 553142, BD Bioscience) in a black microplate, incubated for 20 min at room temperature. Then, marker antibodies were added: CD11c-FITC (557400, BD bioscience), Gr-1-Pe-eFluor610 (61-5931-82, eBioscience), CD11b-APC-Cy7 (557657, BD bioscience), CD45-AlexaFluor700 (103128, BioLegend), CD3-BV605 (564009, BD bioscience), CD19-PE-Cy7 (552854, BD bioscience). Antibodies were incubated with BAL cells for 30 min at room temperature before DAPI (5 μl, BD bioscience) addition, and flow cytometry was performed immediately.
Data are presented as means±SEM. Differences between groups were tested for statistical significance using one-way ANOVA followed by Tukey's post-test. For statistical analysis, control groups 1, 2 and 3 were pooled.

[1] = BAL, P140-IN (i.n. 4 mg/kg, day 9), OVA challenge
[2] = BAL, P140-IN (i.n. 4 mg/kg, day 9), saline challenge
[3] = BAL, P140-IV (i.v. 4 mg/kg, day 9), OVA challenge
[4] = BAL, P140-IV (i.v. 4 mg/kg, day 9), saline challenge

CC[C@H](C)[C@H](NC(=O)[C@H](Cc1ccccc1)NC(=O)[C@H](C)NC(=O)[C@H](Cc1ccc(O)cc1)NC(=O)CNC(=O)[C@H](CCCNC(=N)N)NC(=O)[C@@H]1CCCN1C(=O)[C@H](CCCCN)NC(=O)CNC(=O)[C@H](COP(=O)(O)O)NC(=O)[C@H](CCCNC(=N)N)NC(=O)[C@H](CCCCN)NC(=O)[C@H](CO)NC(=O)[C@H](Cc1ccc(O)cc1)NC(=O)[C@@H](NC(=O)[C@H](CCSC)NC(=O)[C@H](Cc1c[nH]cn1)NC(=O)[C@@H](NC(=O)[C@@H](N)CCCNC(=N)N)[C@@H](C)CC)C(C)C)C(=O)N[C@@H](CCC(=O)O)C(=O)N[C@@H](Cc1ccc(O)cc1)C(=O)O [Compound P140] (H-RIHMVYSKR[pS]GKPRGYAFIEY-OH; N-terminus and C-terminus assumed)
Median survival (MRL/lpr mice): 29 weeks | Cellular uptake (flow cytometry) (Raji cells): Much less cellular uptake | B cells (Balb/c mice; [1]): 25606 and 32251 and 26562 and 23383 and 33156 and 13236 | Eosinophils (Balb/c mice; [1]): 490306 and 497948 and 737671 and 839841 and 792249 and 615171 | Macrophages (Balb/c mice; [1]): 271110 and 322340 and 247391 and 538954 and 436210 and 286509 | Neutrophils (Balb/c mice; [1]): 57542 and 60787 and 62354 and 95173 and 47346 and 65366 | T cells (Balb/c mice; [1]): 44036 and 61800 and 73159 and 118360 and 101951 and 61293 | Total cells (Balb/c mice; [1]): 862995 and 942875 and 1120576 and 1592328 and 1377755 and 1028339 | B cells (Balb/c mice; [2]): 112 and 242 | Eosinophils (Balb/c mice; [2]): 168 and 103 | Macrophages (Balb/c mice; [2]): 388102 and 434029 | Neutrophils (Balb/c mice; [2]): 56 and 61 | T cells (Balb/c mice; [2]): 4135 and 4180 | Total cells (Balb/c mice; [2]): 392461 and 438573 | B cells (Balb/c mice; [3]): 10219 and 15209 and 14027 and 17417 and 11003 and 10922 | Eosinophils (Balb/c mice; [3]): 425928 and 272763 and 473105 and 470027 and 327186 and 429469 | Macrophages (Balb/c mice; [3]): 439265 and 442055 and 244523 and 293070 and 342134 and 379565 | Neutrophils (Balb/c mice; [3]): 42783 and 21442 and 59616 and 76867 and 40275 and 31756 | T cells (Balb/c mice; [3]): 41744 and 43881 and 32677 and 55502 and 28857 and 45030 | Total cells (Balb/c mice; [3]): 949720 and 780142 and 809921 and 895467 and 738452 and 885821 | B cells (Balb/c mice; [4]): 70 and 266 | Eosinophils (Balb/c mice; [4]): 110 and 166 | Macrophages (Balb/c mice; [4]): 335658 and 335200 | Neutrophils (Balb/c mice; [4]): 259 and 133 | T cells (Balb/c mice; [4]): 5311 and 4790 | Total cells (Balb/c mice; [4]): 341738 and 340389 | Number of cells recovered in BAL fluid as compared to vehicle (Balb/c mice; control mice challenged with saline, i.n. or i.v.): little effect | Inflammatory cell recruitment in BAL (in words) (Balb/c mice; i.n. route, 4 mg/kg, OVA challenge): little effect; also recorded: without substantial effect | Neutrophils recruitment, change vs OVA group (Balb/c mice; i.v. 4 mg/kg, OVA challenge, BAL, not significant): −38% | Eosinophil recruitment, change vs OVA group (Balb/c mice; i.v. 4 mg/kg, OVA challenge, BAL, p<0.001): −50% | T cells recruitment, change vs OVA group (Balb/c mice; i.v. 4 mg/kg, OVA challenge, BAL, p<0.01): −66% | B cells recruitment, change vs OVA group (Balb/c mice; i.v. 4 mg/kg, OVA challenge, BAL, p<0.05): −42% | Anti-inflammatory effect (in words) (Balb/c mice; i.v. administration 4 mg/kg, OVA challenge): shows anti-inflammatory effect

— patent US20210308211A1, “METHOD OF TREATING VIRAL INFECTIONS” (priority 2020, published 2021)
